Data: PMC5218480 (PLoS ONE, 2017)

Test system: MV-4-11 cells
Test: Gene expression microarray analysis (Affymetrix PrimeView) and GSEA
Assay type: cell-based, human
Set-up: RFU PODN (11730768_x_at) / Fold change /veh PODN (11730768_x_at) / RFU LINC00158 (11744669_a_at) / Fold change /veh LINC00158 (11744669_a_at) / RFU DUSP10 (11751237_a_at) / Fold change /veh DUSP10 (11751237_a_at) / RFU ID3 (11757404_x_at) / Fold change /veh ID3 (11757404_x_at) / RFU PLEKHG5 (11737974_s_at) / Fold change /veh PLEKHG5 (11737974_s_at) / RFU LRRC4B (11730491_at) / Fold change /veh LRRC4B (11730491_at) / RFU GIMAP4 (11747438_a_at) / Fold change /veh GIMAP4 (11747438_a_at) / RFU KRT8 (11758183_x_at) / Fold change /veh KRT8 (11758183_x_at) / RFU CNN1 (11734310_a_at) / Fold change /veh CNN1 (11734310_a_at) / RFU VPS37D (11726825_at) / Fold change /veh VPS37D (11726825_at) / RFU C10orf10 (11716522_x_at) / Fold change /veh C10orf10 (11716522_x_at) / RFU KIR2DL2 /// KIR2DL4 /// KIR2DL5A /// KIR2DL5B /// KIR2DS1 /// KIR2DS2 /// KIR2DS3 /// KIR2DS4 /// KIR3DL3 /// KIR3DL3 /// KIR3DS1 (11738374_at) / Fold change /veh KIR2DL2 /// KIR2DL4 /// KIR2DL5A /// KIR2DL5B /// KIR2DS1 /// KIR2DS2 /// KIR2DS3 /// KIR2DS4 /// KIR3DL3 /// KIR3DL3 /// KIR3DS1 (11738374_at) / RFU C1QL1 (11718748_at) / Fold change /veh C1QL1 (11718748_at) / RFU TMPRSS4 (11747572_a_at) / Fold change /veh TMPRSS4 (11747572_a_at) / RFU HAMP (11756126_x_at) / Fold change /veh HAMP (11756126_x_at) / RFU RNFT2 (11725882_a_at) / Fold change /veh RNFT2 (11725882_a_at) / RFU NR4A2 (11747474_a_at) / Fold change /veh NR4A2 (11747474_a_at) / RFU ABCC12 (11746883_a_at) / Fold change /veh ABCC12 (11746883_a_at) / RFU TMEM136 (11760407_x_at) / Fold change /veh TMEM136 (11760407_x_at) / RFU CLDN22 /// WWC2 (11732394_at) / Fold change /veh CLDN22 /// WWC2 (11732394_at) / RFU HLA-DPB1 (11760878_x_at) / Fold change /veh HLA-DPB1 (11760878_x_at) / RFU SPINT1 (11716480_a_at) / Fold change /veh SPINT1 (11716480_a_at) / RFU GAP43 (11754022_s_at) / Fold change /veh GAP43 (11754022_s_at) / RFU A4GNT (11735810_at) / Fold change /veh A4GNT (11735810_at) / RFU PRB3 (11715151_x_at) / Fold change /veh PRB3 (11715151_x_at) / RFU TUBB4B (11761932_at) / Fold change /veh TUBB4B (11761932_at) / RFU CAPN14 (11732068_a_at) / Fold change /veh CAPN14 (11732068_a_at) / RFU TMCC2 (11721928_a_at) / Fold change /veh TMCC2 (11721928_a_at) / RFU IRGQ (11745062_a_at) / Fold change /veh IRGQ (11745062_a_at) / RFU FAM174B (11720279_a_at) / Fold change /veh FAM174B (11720279_a_at) / RFU TMPRSS4 (11748680_a_at) / Fold change /veh TMPRSS4 (11748680_a_at) / RFU FAM212B (11763350_a_at) / Fold change /veh FAM212B (11763350_a_at) / RFU PLEKHG5 (11743358_a_at) / Fold change /veh PLEKHG5 (11743358_a_at) / RFU ZSCAN30 (11745921_a_at) / Fold change /veh ZSCAN30 (11745921_a_at) / RFU CMKLR1 (11741424_a_at) / Fold change /veh CMKLR1 (11741424_a_at) / RFU LOC101060620 /// MAPK8IP1 (11723275_at) / Fold change /veh LOC101060620 /// MAPK8IP1 (11723275_at) / RFU SPTSSB (11747773_x_at) / Fold change /veh SPTSSB (11747773_x_at) / RFU PRSS12 (11739890_at) / Fold change /veh PRSS12 (11739890_at) / RFU BIN1 (11741810_x_at) / Fold change /veh BIN1 (11741810_x_at) / RFU WNT11 (11732464_a_at) / Fold change /veh WNT11 (11732464_a_at) / RFU C10orf10 (11716521_a_at) / Fold change /veh C10orf10 (11716521_a_at) / RFU C5orf56 (11738089_at) / Fold change /veh C5orf56 (11738089_at) / RFU CYB561 (11721691_x_at) / Fold change /veh CYB561 (11721691_x_at) / RFU ANKRD19P (11752326_a_at) / Fold change /veh ANKRD19P (11752326_a_at) / RFU OR2T12 /// OR2T33 /// OR2T8 (11738714_s_at) / Fold change /veh OR2T12 /// OR2T33 /// OR2T8 (11738714_s_at) / RFU VCAN (11748164_a_at) / Fold change /veh VCAN (11748164_a_at) / RFU JSRP1 (11732532_at) / Fold change /veh JSRP1 (11732532_at) / RFU KRTAP10-11 (11738290_x_at) / Fold change /veh KRTAP10-11 (11738290_x_at) / RFU MYO3A (11730013_a_at) / Fold change /veh MYO3A (11730013_a_at) / RFU EBF3 (11725865_a_at) / Fold change /veh EBF3 (11725865_a_at) / RFU CAMK2N1 (11719241_x_at) / Fold change /veh CAMK2N1 (11719241_x_at) / RFU C5orf56 (11738088_a_at) / Fold change /veh C5orf56 (11738088_a_at) / RFU OLFML3 (11715873_a_at) / Fold change /veh OLFML3 (11715873_a_at) / RFU LOC100653217 /// NTM (11731650_a_at) / Fold change /veh LOC100653217 /// NTM (11731650_a_at) / RFU MAPK11 (11762145_a_at) / Fold change /veh MAPK11 (11762145_a_at) / RFU FIZ1 (11724087_x_at) / Fold change /veh FIZ1 (11724087_x_at) / RFU OASL (11726364_x_at) / Fold change /veh OASL (11726364_x_at) / RFU SOX15 (11748057_x_at) / Fold change /veh SOX15 (11748057_x_at) / RFU CD79A (11719716_a_at) / Fold change /veh CD79A (11719716_a_at) / RFU HIST1H1D (11736915_at) / Fold change /veh HIST1H1D (11736915_at) / RFU CASKIN2 (11723855_a_at) / Fold change /veh CASKIN2 (11723855_a_at) / RFU LOC730098 (11760151_x_at) / Fold change /veh LOC730098 (11760151_x_at) / RFU OR4N2 (11742367_at) / Fold change /veh OR4N2 (11742367_at) / RFU PRRT2 (11749266_a_at) / Fold change /veh PRRT2 (11749266_a_at) / RFU SNX32 (11753110_a_at) / Fold change /veh SNX32 (11753110_a_at) / RFU CDHR5 (11726645_a_at) / Fold change /veh CDHR5 (11726645_a_at) / RFU RCAN1 (11760418_a_at) / Fold change /veh RCAN1 (11760418_a_at) / RFU FAM167A (11723789_a_at) / Fold change /veh FAM167A (11723789_a_at) / RFU FAM26E (11764081_at) / Fold change /veh FAM26E (11764081_at) / RFU ISYNA1 (11749810_s_at) / Fold change /veh ISYNA1 (11749810_s_at) / RFU ACY1 (11761880_at) / Fold change /veh ACY1 (11761880_at) / RFU 11764098_at / Fold change /veh 11764098_at / RFU SAMD14 (11745864_x_at) / Fold change /veh SAMD14 (11745864_x_at) / RFU NPB (11741838_a_at) / Fold change /veh NPB (11741838_a_at) / RFU TMPRSS6 (11731388_a_at) / Fold change /veh TMPRSS6 (11731388_a_at) / RFU KRTAP10-2 (11738614_at) / Fold change /veh KRTAP10-2 (11738614_at) / RFU ARHGAP8 /// PRR5-ARHGAP8 (11727945_x_at) / Fold change /veh ARHGAP8 /// PRR5-ARHGAP8 (11727945_x_at) / RFU KRTAP5-7 /// NADSYN1 (11734609_at) / Fold change /veh KRTAP5-7 /// NADSYN1 (11734609_at) / RFU RASL12 (11751679_a_at) / Fold change /veh RASL12 (11751679_a_at) / RFU CDKN2B (11736163_a_at) / Fold change /veh CDKN2B (11736163_a_at) / RFU PRF1 (11729649_at) / Fold change /veh PRF1 (11729649_at) / RFU, ZNF638 /// ZNF638-IT1 / Fold change vs veh, ZNF638 /// ZNF638-IT1 / RFU, PANK3 / Fold change vs veh, PANK3 / RFU, SH3YL1 / Fold change vs veh, SH3YL1 / RFU, ZEB2 / Fold change vs veh, ZEB2 / RFU, NRIP1 / Fold change vs veh, NRIP1 / RFU, PTTG1IP / Fold change vs veh, PTTG1IP / RFU, CAPN2 / Fold change vs veh, CAPN2 / RFU, MED14 / Fold change vs veh, MED14 / RFU, SNORA58 / Fold change vs veh, SNORA58 / RFU, C1orf63 / Fold change vs veh, C1orf63 / RFU, LRRFIP1 / Fold change vs veh, LRRFIP1 / RFU, NDUFAF7 / Fold change vs veh, NDUFAF7 / RFU, SLC12A2 / Fold change vs veh, SLC12A2 / RFU, IBTK / Fold change vs veh, IBTK / RFU, ESF1 / Fold change vs veh, ESF1 / Fold change vs veh, TMEM50B / RFU, TAOK1 / Fold change vs veh, TAOK1 / RFU, ACBD3 / Fold change vs veh, ACBD3 / RFU, TMA16 / Fold change vs veh, TMA16 / RFU, RWDD3 / Fold change vs veh, RWDD3 / RFU, BCAT1 / Fold change vs veh, BCAT1 / RFU, EDEM3 / Fold change vs veh, EDEM3 / RFU, TMEM33 / Fold change vs veh, TMEM33 / RFU, WDR75 / Fold change vs veh, WDR75 / RFU, AHCTF1 / Fold change vs veh, AHCTF1 / RFU, TFRC / Fold change vs veh, TFRC / RFU, ZDHHC17 / Fold change vs veh, ZDHHC17 / RFU, NOM1 / Fold change vs veh, NOM1 / RFU, ARL8B / Fold change vs veh, ARL8B / RFU, ZBTB11 / Fold change vs veh, ZBTB11 / RFU, TAMM41 / Fold change vs veh, TAMM41 / RFU, KIAA1704 /// LOC100996395 / Fold change vs veh, KIAA1704 /// LOC100996395 / RFU, ING1 / Fold change vs veh, ING1 / RFU, TRMT61B / Fold change vs veh, TRMT61B / RFU, FUBP3 / Fold change vs veh, FUBP3 / RFU, TP53 / Fold change vs veh, TP53 / RFU, TNKS2 / Fold change vs veh, TNKS2 / RFU, ZFP14 / Fold change vs veh, ZFP14 / RFU, ACTR2 / Fold change vs veh, ACTR2 / RFU, PPP3R1 / Fold change vs veh, PPP3R1 / RFU, PIK3R1 / Fold change vs veh, PIK3R1 / RFU, HNRNPA1 / Fold change vs veh, HNRNPA1 / RFU, RNF170 / Fold change vs veh, RNF170 / RFU, ZNF28 / Fold change vs veh, ZNF28 / RFU, RNGTT / Fold change vs veh, RNGTT / RFU, OGT / Fold change vs veh, OGT / RFU, BRD1 / Fold change vs veh, BRD1 / RFU, MARS / Fold change vs veh, MARS / RFU, ZNF655 / Fold change vs veh, ZNF655 / RFU, FAHD1 / Fold change vs veh, FAHD1 / RFU, BDP1 / Fold change vs veh, BDP1 / RFU, LRRCC1 / Fold change vs veh, LRRCC1 / RFU, ARID1A / Fold change vs veh, ARID1A / RFU, ZNF146 / Fold change vs veh, ZNF146 / RFU, ZNF330 / Fold change vs veh, ZNF330 / RFU, GPN3 / Fold change vs veh, GPN3 / RFU, C9orf123 / Fold change vs veh, C9orf123 / RFU, N4BP2L2 / Fold change vs veh, N4BP2L2 / RFU, ARFIP1 / Fold change vs veh, ARFIP1 / RFU, FAM179B / Fold change vs veh, FAM179B / RFU, BCL10 / Fold change vs veh, BCL10 / RFU, UHRF1BP1L / Fold change vs veh, UHRF1BP1L / RFU, BET1 / Fold change vs veh, BET1 / RFU, CNOT2 / Fold change vs veh, CNOT2 / RFU, ZNF268 / Fold change vs veh, ZNF268 / Fold change vs veh, ZNF507 / RFU, DGCR2 / Fold change vs veh, DGCR2 / RFU, WDSUB1 / Fold change vs veh, WDSUB1 / Fold change vs veh, HSP90B1 /// MIR3652 / RFU, ADSS / Fold change vs veh, ADSS / RFU, GK / Fold change vs veh, GK / RFU, ZNF148 / Fold change vs veh, ZNF148 / RFU, TAF9 / Fold change vs veh, TAF9 / RFU, SLC1A5 / Fold change vs veh, SLC1A5 / RFU, SLMO2 / Fold change vs veh, SLMO2 / RFU, ABCC4 / Fold change vs veh, ABCC4 / RFU, LOC101060439 /// RAP1B / Fold change vs veh, LOC101060439 /// RAP1B / RFU, RFX7 / Fold change vs veh, RFX7 / RFU, GTPBP10 / Fold change vs veh, GTPBP10 / RFU, CNEP1R1 / Fold change vs veh, CNEP1R1 / RFU, BIVM-ERCC5 /// ERCC5 / Fold change vs veh, BIVM-ERCC5 /// ERCC5 / RFU, ILF3 / Fold change vs veh, ILF3 / RFU 11762660_at / Fold change /veh 11762660_at / RFU VCAN (11757783_s_at) / Fold change /veh VCAN (11757783_s_at) / RFU DDX43 (11728927_at) / Fold change /veh DDX43 (11728927_at) / RFU KRT8 (11758188_x_at) / Fold change /veh KRT8 (11758188_x_at) / RFU NKD1 (11759106_at) / Fold change /veh NKD1 (11759106_at) / RFU SRD5A1 (11742802_a_at) / Fold change /veh SRD5A1 (11742802_a_at) / RFU TPSAB1 /// TPSB2 (11721975_s_at) / Fold change /veh TPSAB1 /// TPSB2 (11721975_s_at) / RFU GSTM3 (11746129_a_at) / Fold change /veh GSTM3 (11746129_a_at) / RFU IL23R (11737362_x_at) / Fold change /veh IL23R (11737362_x_at) / RFU TMEM51 (11727254_a_at) / Fold change /veh TMEM51 (11727254_a_at) / RFU PIWIL2 (11732686_x_at) / Fold change /veh PIWIL2 (11732686_x_at) / RFU ORM1 (11744905_x_at) / Fold change /veh ORM1 (11744905_x_at) / RFU CCDC152 (11743942_at) / Fold change /veh CCDC152 (11743942_at) / RFU ECM1 (11717891_a_at) / Fold change /veh ECM1 (11717891_a_at) / RFU IL23R (11748794_a_at) / Fold change /veh IL23R (11748794_a_at) / RFU TNFAIP8L3 (11732012_x_at) / Fold change /veh TNFAIP8L3 (11732012_x_at) / RFU MBOAT4 (11741988_at) / Fold change /veh MBOAT4 (11741988_at) / RFU 11764193_at / Fold change /veh 11764193_at / RFU TMEM53 (11763286_at) / Fold change /veh TMEM53 (11763286_at) / RFU MAGEB2 (11727129_at) / Fold change /veh MAGEB2 (11727129_at) / RFU TMEM200A (11744735_a_at) / Fold change /veh TMEM200A (11744735_a_at) / RFU CCDC152 (11751479_a_at) / Fold change /veh CCDC152 (11751479_a_at) / RFU FAM211A (11726209_a_at) / Fold change /veh FAM211A (11726209_a_at) / RFU RGS16 (11746705_a_at) / Fold change /veh RGS16 (11746705_a_at) / RFU VCAN (11755009_s_at) / Fold change /veh VCAN (11755009_s_at) / RFU RHOB (11743442_s_at) / Fold change /veh RHOB (11743442_s_at) / RFU RGS16 (11720943_a_at) / Fold change /veh RGS16 (11720943_a_at) / RFU RGS16 (11720944_at) / Fold change /veh RGS16 (11720944_at) / RFU, VPS4B / Fold change vs veh, VPS4B / RFU, CREB1 / Fold change vs veh, CREB1 / RFU, DNAJC13 / Fold change vs veh, DNAJC13 / RFU, GNAQ / Fold change vs veh, GNAQ / RFU, CDK5R1 / Fold change vs veh, CDK5R1 / RFU, ZRANB3 / Fold change vs veh, ZRANB3 / RFU, CUL4A / Fold change vs veh, CUL4A / RFU, CCNY / Fold change vs veh, CCNY / RFU, UFL1 / Fold change vs veh, UFL1 / RFU, COG3 / Fold change vs veh, COG3 / RFU, DIAPH2 / Fold change vs veh, DIAPH2 / RFU, SKA2 / Fold change vs veh, SKA2 / RFU, AFF3 / Fold change vs veh, AFF3 / RFU, LMF1 / Fold change vs veh, LMF1 / RFU, IPO11 / Fold change vs veh, IPO11 / RFU, DFFB / Fold change vs veh, DFFB / RFU, FOXP1 / Fold change vs veh, FOXP1 / RFU, CARD8 / Fold change vs veh, CARD8 / RFU, STRN3 / Fold change vs veh, STRN3 / RFU, ADK / Fold change vs veh, ADK / RFU, RASSF2 / Fold change vs veh, RASSF2 / RFU, WIPF1 / Fold change vs veh, WIPF1 / RFU, LARP1B / Fold change vs veh, LARP1B / RFU, RASA1 / Fold change vs veh, RASA1 / RFU, RB1 / Fold change vs veh, RB1 / RFU, PPFIA1 / Fold change vs veh, PPFIA1 / RFU, MAT2A / Fold change vs veh, MAT2A / RFU, CCT5 / Fold change vs veh, CCT5 / RFU, WDR92 / Fold change vs veh, WDR92 / RFU, CUX1 / Fold change vs veh, CUX1 / RFU, TTC7A / Fold change vs veh, TTC7A / RFU, TMEM135 / Fold change vs veh, TMEM135 / RFU, DEPTOR / Fold change vs veh, DEPTOR / RFU, CPM / Fold change vs veh, CPM / RFU, DNAJB6 / Fold change vs veh, DNAJB6 / RFU, CACNA2D3 / Fold change vs veh, CACNA2D3 / RFU, DTX4 / Fold change vs veh, DTX4 / RFU, TFCP2 / Fold change vs veh, TFCP2 / RFU, GMCL1 /// GMCL1P1 / Fold change vs veh, GMCL1 /// GMCL1P1 / RFU, AEBP2 / Fold change vs veh, AEBP2 / RFU, SNHG1 /// SNORD22 /// SNORD25 /// SNORD26 /// SNORD27 /// SNORD28 /// SNORD29 /// SNORD31 / Fold change vs veh, SNHG1 /// SNORD22 /// SNORD25 /// SNORD26 /// SNORD27 /// SNORD28 /// SNORD29 /// SNORD31 / Fold change (Aza/veh), C12orf56 (ProbeSet 11735607_a_at) / Fold change (ACY-1035/veh), C12orf56 (ProbeSet 11735607_a_at) / Fold change (Aza/veh), FGFR1OP (ProbeSet 11751329_s_at) / Fold change (ACY-1035/veh), FGFR1OP (ProbeSet 11751329_s_at) / Fold change (Aza/veh), VPS36 (ProbeSet 11739960_a_at) / Fold change (ACY-1035/veh), VPS36 (ProbeSet 11739960_a_at) / RFU SYPL1 (11715823_x_at) / Fold change /veh SYPL1 (11715823_x_at) / RFU IGFBP7 (11715501_s_at) / Fold change /veh IGFBP7 (11715501_s_at) / RFU REEP3 (11722064_at) / Fold change /veh REEP3 (11722064_at) / RFU IGLL1 (11728026_x_at) / Fold change /veh IGLL1 (11728026_x_at): dose or concentration left out as unconfirmed
Conditions: ProbeSet 11750457_a_at; LIST B

Question: Which “Fold change vs veh, GTPBP10” value does the source give for Nc1ccc(-c2cccs2)cc1NC(=O)c1ccc2c(c1)cc(C1CC1)n2CCN1CCOCC1 [ACY-1035] here?
Answer: The value was 0.84.
